Earlier results on one molecule are cited in US20170065667A1, “METHODS FOR SYNCHRONIZATION OF ESTROUS CYCLES AND OVULATION FOR FIXED TIME ARTIFICIAL INSEMINATION IN CATTLE” (Parnell Technologies Pty Ltd., priority 2014, published 2017).

This data set deals with lactating dairy cows. To be noted: dinoprost 25 mg, cloprostenol 0.5 mg; cited from earlier work.

As to `CCCCC[C@H](O)/C=C/[C@@H]1[C@@H](C/C=C\CCCC(=O)O)[C@@H](O)C[C@H]1O` [dinoprost], the “percentage of cows with complete CL regression” value is 80%.
